Measured values taken from paper PMC11466185, “Mechanisms and efficacy of small molecule latency-promoting agents to inhibit HIV reactivation ex vivo” (JCI Insight, 2024).

Tests used:
[1] = tested on: HIV transcripts (TAR, LLTR, Pol, PolyA, TatRev); assay: Baseline HIV transcription without activation, PBMCs from ART-suppressed PWH, 24 hours; type: cell-based; conditions: no activation; for LLTR HIV transcripts (DMSO = 100) / Pol HIV transcripts (DMSO = 100) / PolyA HIV transcripts (DMSO = 100) / Tat-Rev HIV transcripts (DMSO = 100) / PolyA/LLTR ratio (DMSO = 1) / TatRev/PolyA ratio (DMSO = 1) / TAR HIV transcripts (DMSO = 100) / LLTR/TAR ratio (DMSO = 1): ruxolitinib 4μM, dinaciclib 8nM, AZD4573 8nM, KRIBB11 2.5μM; for LLTR HIV transcripts (DMSO = 100) / Pol HIV transcripts (DMSO = 100) / PolyA HIV transcripts (DMSO = 100) / Tat-Rev HIV transcripts (DMSO = 100) / TAR HIV transcripts (DMSO = 100): pladienolide B 10nM; for PolyA/LLTR ratio (DMSO = 1) / TatRev/PolyA ratio (DMSO = 1) / LLTR/TAR ratio (DMSO = 1): pladienolide B
Description: For a selection of the compounds, we evaluated the ability to reduce baseline HIV transcription without activation. PBMCs were cultured in the presence of individual drugs in DMSO or DMSO alone as a control and harvested after 24 hours. For each drug, we tested PBMCs from at least 3 PWH, as indicated in Supplemental Figure 5B. […] Likewise, pladienolide B appeared to reduce the level of multiply spliced transcripts (33%, Supplemental Figure 5, A and B).
PBMCs were isolated from fresh venous blood from 16 ART-suppressed HIV-infected study participants using Ficoll density gradient centrifugation. The cells were seeded at 6 × 10^6 cells/well and cultured with antiretrovirals (nevirapine and indinavir) to prevent new infection. On the next day, PBMCs were activated with anti-CD3/CD28–coated beads (Invitrogen) in the presence of 20 U/mL IL-2 and individual drugs in DMSO or DMSO alone as a control. Since we were limited in the PBMC yield per study participant, different study participants were used for different experiments (such as the initial screen, dose response, different time points, and studies in activated vs. unstimulated cells). In addition, the yields of PBMCs were sometimes insufficient to test all drugs for a given question or experiment.
Total cellular DNA and RNA were extracted in parallel using Trireagent (Molecular Research Center) according to the manufacturer’s instructions, except for study participants 2147 and 2461 (Figure 4), for whom DNA and RNA were extracted using the QIAGEN AllPrep DNA/RNA/miRNA Universal Kit with on-column DNase I treatment of the RNA and the manufacturer’s modification to enhance recovery of short transcripts. RNA and DNA concentrations were measured using UV spectrophotometry (NanoDrop One, Thermo Fisher Scientific). Total initiated HIV (TAR) transcripts were quantified by a 3-step polyadenylation RT-ddPCR as described previously ([8], [84]). HIV 5′ elongated (LLTR), midtranscribed (Pol), completed (PolyA), and multiply spliced (TatRev) transcripts were quantified by a 2-step RT-ddPCR as previously described ([8]). The levels of each HIV transcript were normalized to 1 μg of total cellular RNA and expressed as a percentage of the (activated) DMSO control. To quantify virion-associated RNA in supernatant, RNA was extracted from 400 μL supernatant using Trireagent-LS (Molecular Research Center) according to the manufacturer’s instructions. Levels of U3-polyadenylated HIV RNA were measured in the supernatant by RT-ddPCR, normalized to copies/mL, and expressed as a percentage of the activated DMSO. For measuring the HIV infection frequency at day 6, the HIV DNA U3-U5 LTR region was quantified by using ddPCR as described previously ([8]). HIV DNA copies were normalized to cell numbers according to the mass of DNA input per well (calculated from the DNA concentration and input volume) ([85]).
Figure S5. CDK-inhibitors appear to decrease baseline HIV splicing even in the absence of T cell activation. Each drug was tested in PBMCs from at least three ART-suppressed study participants and PBMCs were aliquoted into wells at 6x10^6 cells/well. The cells were cultured with antiretrovirals but without activation in the presence of individual drugs in (1 picture or pasted object on this page, not shown here)
DMSO or DMSO alone as control. After 24h, total RNA was extracted and the progression through different stages of HIV transcription was quantified by measuring the levels of initiated (TAR), 5’ elongated (LLTR), mid-transcribed/unspliced (Pol), completed (PolyA) and multiply spliced (TatRev) HIV transcripts. A-B) The levels of all HIV transcripts were quantified, normalized to 1 µg of total cellular RNA, and expressed as a percent of the DMSO control (% of DMSO). A) Medians are shown, as well as the values of the individual study participants in different colors. B) The medians from panel A) are presented. The effect of each drug on the different transcripts was studied in three to six study participants, as […]

PBMCs = assay: Cell viability by trypan blue staining after 24 hours; type: cell-based, human; conditions: for Viability (dose-response): 1 participant per drug, in % (unit assumed)
Summary of the method: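 PBMCs from ART-suppressed donors at 6 × 10^6 cells/well were activated with CD3/28 beads and cultured with antiretrovirals plus drug in DMSO. Viability counted by trypan blue after 24 hours. Values were normalized to the activated DMSO control.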

pladienolide B
Multiply spliced HIV transcripts without activation, median relative to DMSO ([1]; 24 hours, at least 3 PWH): 33% | HIV splicing (TatRev/PolyA) without activation ([1]; 24 hours, not statistically significant): severely reduce | LLTR HIV transcripts (DMSO = 100) ([1]; participant 156): 85.34 | Pol HIV transcripts (DMSO = 100) ([1]; participant 156): 133.38 | PolyA HIV transcripts (DMSO = 100) ([1]; participant 156): 150.05 | Tat-Rev HIV transcripts (DMSO = 100) ([1]; participant 156): 66.69 | PolyA/LLTR ratio (DMSO = 1) ([1]; participant 156): 1.758 | TatRev/PolyA ratio (DMSO = 1) ([1]; participant 156): 0.4444 | LLTR HIV transcripts (DMSO = 100) ([1]; participant 163): 92.55 | Pol HIV transcripts (DMSO = 100) ([1]; participant 163): 107.42 | PolyA HIV transcripts (DMSO = 100) ([1]; participant 163): 106.43 | Tat-Rev HIV transcripts (DMSO = 100) ([1]; participant 163): 0 | PolyA/LLTR ratio (DMSO = 1) ([1]; participant 163): 1.15 | TatRev/PolyA ratio (DMSO = 1) ([1]; participant 163): 0 | LLTR HIV transcripts (DMSO = 100) ([1]; participant 1379): 18.62 | Pol HIV transcripts (DMSO = 100) ([1]; participant 1379): 16.13 | PolyA HIV transcripts (DMSO = 100) ([1]; participant 1379): 25.8 | TAR HIV transcripts (DMSO = 100) ([1]; participant 1379): 228.89 | LLTR/TAR ratio (DMSO = 1) ([1]; participant 1379): 0.08133 | PolyA/LLTR ratio (DMSO = 1) ([1]; participant 1379): 1.3861 | LLTR HIV transcripts (DMSO = 100) ([1]; participant 2027): 81.44 | Pol HIV transcripts (DMSO = 100) ([1]; participant 2027): 43.71 | PolyA HIV transcripts (DMSO = 100) ([1]; participant 2027): 90.63 | TAR HIV transcripts (DMSO = 100) ([1]; participant 2027): 125.58 | LLTR/TAR ratio (DMSO = 1) ([1]; participant 2027): 0.6485 | PolyA/LLTR ratio (DMSO = 1) ([1]; participant 2027): 1.113 | Viability (dose-response) (PBMCs; dose 0.1 nM): 74.768 | Viability (dose-response) (PBMCs; dose 1 nM): 75.444 | Viability (dose-response) (PBMCs; dose 10 nM): 68.259 | Cell viability (in words) (PBMCs; initial screening concentrations, Figure 1A): impact on cell viability | Viability (Fig 1A) (PBMCs; study participant 150a): 75.5 % of activated DMSO | Viability (Fig 1A) (PBMCs; study participant 152): 79.98 % of activated DMSO
